According to ChEMBL document CHEMBL5532651, “HDAC specificity and kinase off-targeting by purine-benzohydroxamate anti-hematological tumor agents” (Eur J Med Chem, 2024):
pIC50: −log10 of the molar value. Active and inactive are the calls of the source. The rule behind the calls is not given here.

How the values were obtained:
[1] = target: CYP2C9 (Homo sapiens, UniProt P11712); assay: Inhibition of CYP2C9 in liver microsomes (unknown origin) at 10 uM incubated for 10 mins relative to control; format: ADME, Microsome
CYP2C9, sequence (P11712 whole entry): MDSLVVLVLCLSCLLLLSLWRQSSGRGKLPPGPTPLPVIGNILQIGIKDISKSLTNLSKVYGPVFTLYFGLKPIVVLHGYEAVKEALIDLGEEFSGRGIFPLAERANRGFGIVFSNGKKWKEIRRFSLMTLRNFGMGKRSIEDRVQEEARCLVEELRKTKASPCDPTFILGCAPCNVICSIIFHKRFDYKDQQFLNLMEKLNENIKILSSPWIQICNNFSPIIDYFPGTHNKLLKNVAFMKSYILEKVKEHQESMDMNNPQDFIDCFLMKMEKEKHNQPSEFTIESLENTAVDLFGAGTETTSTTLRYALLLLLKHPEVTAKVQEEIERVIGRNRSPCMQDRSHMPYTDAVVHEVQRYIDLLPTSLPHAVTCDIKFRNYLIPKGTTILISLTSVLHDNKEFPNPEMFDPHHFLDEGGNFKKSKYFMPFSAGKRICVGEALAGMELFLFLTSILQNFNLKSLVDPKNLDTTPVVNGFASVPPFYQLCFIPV

[2] = target: T1, CYP1A2 (Homo sapiens, UniProt P05177); assay: Inhibition of CYP1A2 in liver microsomes (unknown origin) at 40 uM incubated for 10 mins relative to control; format: ADME, Microsome
T1 sequence (P05177 whole entry): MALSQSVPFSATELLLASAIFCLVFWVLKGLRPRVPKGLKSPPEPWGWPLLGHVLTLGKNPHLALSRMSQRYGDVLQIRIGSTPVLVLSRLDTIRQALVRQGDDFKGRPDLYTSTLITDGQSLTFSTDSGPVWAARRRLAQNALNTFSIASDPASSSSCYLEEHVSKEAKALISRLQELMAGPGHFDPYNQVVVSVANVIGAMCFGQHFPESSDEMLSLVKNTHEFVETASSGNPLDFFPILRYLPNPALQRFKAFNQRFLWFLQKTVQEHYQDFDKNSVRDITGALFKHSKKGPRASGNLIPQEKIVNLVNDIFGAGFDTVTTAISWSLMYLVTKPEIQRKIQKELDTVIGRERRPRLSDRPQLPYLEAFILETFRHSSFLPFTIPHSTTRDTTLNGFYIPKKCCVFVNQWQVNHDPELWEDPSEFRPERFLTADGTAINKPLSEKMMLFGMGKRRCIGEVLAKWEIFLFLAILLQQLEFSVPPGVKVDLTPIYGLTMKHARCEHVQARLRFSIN

[3] = target: CYP2D6 (Homo sapiens, UniProt P10635); assay: Inhibition of CYP2D6 in liver microsomes (unknown origin) at 10 uM incubated for 10 mins relative to control; format: ADME, Microsome
CYP2D6, sequence (P10635 whole entry): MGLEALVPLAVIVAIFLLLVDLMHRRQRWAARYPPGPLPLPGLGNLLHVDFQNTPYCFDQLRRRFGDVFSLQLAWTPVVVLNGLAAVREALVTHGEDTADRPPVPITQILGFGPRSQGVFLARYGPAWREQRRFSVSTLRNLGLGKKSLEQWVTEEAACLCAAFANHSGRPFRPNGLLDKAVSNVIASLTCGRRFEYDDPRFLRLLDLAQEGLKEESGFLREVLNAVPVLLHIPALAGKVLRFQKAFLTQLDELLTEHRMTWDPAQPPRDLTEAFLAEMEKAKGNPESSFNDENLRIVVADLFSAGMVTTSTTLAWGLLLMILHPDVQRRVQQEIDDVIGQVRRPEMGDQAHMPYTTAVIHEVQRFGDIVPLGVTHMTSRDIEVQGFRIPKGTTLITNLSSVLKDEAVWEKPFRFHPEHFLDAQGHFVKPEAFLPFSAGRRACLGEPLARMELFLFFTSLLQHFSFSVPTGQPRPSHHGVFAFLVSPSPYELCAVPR

[4] = system: Jurkat; assay: Induction of apoptosis in human Jurkat cells at IC50 measured after 48 hrs by flow cytometry; format: functional, cell-based
[5] = system: MCF7; assay: cells; format: functional, cell-based; settings: Homo sapiens
[6] = target: T2, Protein deacetylase HDAC6 (Homo sapiens, UniProt Q9UBN7); assay: Inhibition of full-length recombinant human HDAC6 expressed in baculovirus infected Sf9 cells using RHKK(Ac)AMC as substrate preincubated for 5 to 10 mins followed by substrate addition measured after 2 hrs by fluorescence based assay
T2 sequence (Q9UBN7 whole entry): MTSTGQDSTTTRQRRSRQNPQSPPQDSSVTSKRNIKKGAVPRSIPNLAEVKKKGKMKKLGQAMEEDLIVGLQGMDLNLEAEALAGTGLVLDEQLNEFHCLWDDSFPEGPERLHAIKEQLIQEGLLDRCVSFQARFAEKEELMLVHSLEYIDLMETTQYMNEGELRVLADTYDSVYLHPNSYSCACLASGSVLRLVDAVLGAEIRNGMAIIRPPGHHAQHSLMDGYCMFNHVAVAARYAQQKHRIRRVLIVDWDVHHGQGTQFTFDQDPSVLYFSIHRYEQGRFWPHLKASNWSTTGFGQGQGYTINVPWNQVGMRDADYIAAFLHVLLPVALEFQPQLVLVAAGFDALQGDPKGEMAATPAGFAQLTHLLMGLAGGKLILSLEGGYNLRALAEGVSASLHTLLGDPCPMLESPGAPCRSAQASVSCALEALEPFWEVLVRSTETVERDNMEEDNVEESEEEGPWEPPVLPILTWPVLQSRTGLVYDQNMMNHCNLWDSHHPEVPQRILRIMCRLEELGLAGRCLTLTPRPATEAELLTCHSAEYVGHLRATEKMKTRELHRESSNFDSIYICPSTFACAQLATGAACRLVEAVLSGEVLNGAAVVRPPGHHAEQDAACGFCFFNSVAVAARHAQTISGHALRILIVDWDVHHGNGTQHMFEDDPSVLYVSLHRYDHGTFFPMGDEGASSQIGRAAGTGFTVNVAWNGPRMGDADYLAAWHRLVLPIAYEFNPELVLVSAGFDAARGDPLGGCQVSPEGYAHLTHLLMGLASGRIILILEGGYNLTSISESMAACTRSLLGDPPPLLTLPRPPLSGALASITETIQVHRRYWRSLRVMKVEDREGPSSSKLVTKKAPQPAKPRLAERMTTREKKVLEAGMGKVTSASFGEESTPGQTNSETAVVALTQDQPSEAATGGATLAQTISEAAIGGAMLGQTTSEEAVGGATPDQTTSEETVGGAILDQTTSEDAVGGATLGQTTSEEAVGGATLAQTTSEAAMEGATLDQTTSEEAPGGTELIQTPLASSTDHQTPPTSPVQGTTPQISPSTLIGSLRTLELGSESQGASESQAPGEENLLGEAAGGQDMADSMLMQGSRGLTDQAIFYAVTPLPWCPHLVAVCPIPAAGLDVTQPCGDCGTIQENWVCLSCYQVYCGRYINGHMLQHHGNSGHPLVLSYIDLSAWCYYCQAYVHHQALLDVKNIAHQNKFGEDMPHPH

[7] = system: U-937; assay: Cytotoxicity against human U-937 cells assessed as cell growth inhibition at 1.6 to 6.4 uM by MTT assay; format: functional, cell-based; settings: dose 1.6-6.4 µM, time lower 24.0 hrs, time upper […], TDE = time-dependent effect
[8] = Stability in mouse liver microsome assessed as half life at 1 uM measured for 60 mins by LC-MS/MS analysis; format: ADME; settings: liver microsomes
[9] = target: T3, Protein deacetylase HDAC6 (Homo sapiens) (UniProt Q9UBN7); assay: Inhibition of HDAC6 in human NAMALVA cells assessed as increase in acetyl-alpha-tubulin level at IC50 incubated for 48 hrs by Western blot analysis; format: cell-based
T3 sequence (whole entry): T2 sequence (Q9UBN7 whole entry)

[10] = system: NAMALVA; assay: Induction of apoptosis in human NAMALVA cells at IC50 measured after 48 hrs by flow cytometry; format: functional, cell-based
[11] = target: T3, Protein deacetylase HDAC6 (Homo sapiens); assay: Inhibition of HDAC6 in human U-937 cells assessed as increase in acetyl-alpha-tubulin level at IC50 incubated for 48 hrs by Western blot analysis; format: cell-based
[12] = system: Jurkat; assay: Inhibition of cell proliferation of human Jurkat cells assessed as reduction in Ki-67 expression at IC50 measured after 48 hrs by flow cytometry; format: functional, cell-based
[13] = system: Jurkat; assay: Cytotoxicity against human Jurkat cells assessed as cell growth inhibition at 0.03 to 1.8 uM by MTT assay; format: functional, cell-based; settings: dose 0.03-1.8 µM, time lower 24.0 hrs, time upper […], TDE = time-dependent effect
[14] = Stability in human liver microsome assessed as intrinsic clearance at 1 uM measured for 60 mins by LC-MS/MS analysis; format: ADME; settings: liver microsomes, read-out: CLH
[15] = system: NAMALVA; assay: Cytotoxicity against human NAMALVA cells assessed as cell growth inhibition at 0.04 to 17.4 uM by MTT assay; format: functional, cell-based; settings: dose 0.04-17.4 µM, time lower 24.0 hrs, time upper […], TDE = time-dependent effect
[16] = system: NAMALVA; assay: cells; settings: Homo sapiens
[17] = target: T3, Protein deacetylase HDAC6 (Homo sapiens); assay: Inhibition of HDAC6 in human Jurkat cells assessed as increase in acetyl-alpha-tubulin level at IC50 incubated for 48 hrs by Western blot analysis; format: cell-based
[18] = target: T3, Protein deacetylase HDAC6 (Homo sapiens); assay: Inhibition of HDAC6 in human U-937 cells assessed as increase in acetyl-histone H3 level at IC50 incubated for 48 hrs by Western blot analysis; format: cell-based
[19] = Stability in mouse liver microsome assessed as intrinsic clearance at 1 uM measured for 60 mins by LC-MS/MS analysis; format: ADME; settings: liver microsomes, read-out: CLH
[20] = target: T1, CYP1A2; assay: Inhibition of CYP1A2 in liver microsomes (unknown origin) at 10 uM incubated for 10 mins relative to control; format: ADME, Microsome
[21] = system: U-937; assay: Cytotoxicity against human U-937 cells assessed as cell growth inhibition incubated for 24 to 72 hrs by MTT assay; format: functional, cell-based; settings: time lower 24.0 hrs, time upper […]
[22] = system: U-937; assay: Inhibition of cell proliferation of human U-937 cells assessed as reduction in Ki-67 expression at IC50 measured after 48 hrs by flow cytometry; format: functional, cell-based
[23] = target: T3, Protein deacetylase HDAC6 (Homo sapiens); assay: Inhibition of HDAC6 in human Jurkat cells assessed as increase in acetyl-histone H3 level at IC50 incubated for 48 hrs by Western blot analysis; format: cell-based
[24] = system: HCT-116; assay: cells; settings: Homo sapiens
[25] = system: Jurkat; assay: cells; settings: Homo sapiens
[26] = Stability in human liver microsome assessed as half life at 1 uM measured for 60 mins by LC-MS/MS analysis; format: ADME; settings: liver microsomes
[27] = system: U-937; assay: Induction of apoptosis in human U-937 cells at IC50 measured after 48 hrs by flow cytometry; format: functional, cell-based
[28] = system: NAMALVA; assay: Inhibition of cell proliferation of human NAMALVA cells assessed as reduction in Ki-67 expression at IC50 measured after 48 hrs by flow cytometry; format: functional, cell-based
[29] = target: T3, Protein deacetylase HDAC6 (Homo sapiens); assay: Inhibition of HDAC6 in human NAMALVA cells assessed as increase in acetyl-histone H3 level at IC50 incubated for 48 hrs by Western blot analysis; format: cell-based
[30] = target: T2, Protein deacetylase HDAC6; assay: Inhibition of HDAC6 (unknown origin)

Cc1nc2c([nH]1)c(=O)n(C)c(=O)n2Cc1ccco1 [FURAFYLLINE]
inhibition at 10 min, 10 µM [1]: 10% | inhibition at 10 min, 40 µM [2]: 78% | inhibition at 10 min, 10 µM [3]: 10%

O=C(NO)c1ccc(Cn2cnc3c(Nc4ccc(Br)cc4F)ncnc32)cc1
Activity [4]: Active | pIC50 [5]: 4.66 | inhibition at 10 min, 10 µM [1]: 42% | pIC50 [6]: 6.73 | inhibition [7]: Tde | half-life at 1 µM [8]: 35 min | inhibition [9]: Active | Activity [10]: Active | inhibition [11]: Active | inhibition [12]: Active | inhibition [13]: Tde | microsomal CLint at 1 µM [14]: < 6 µL/min/mg | inhibition at 10 min, 10 µM [3]: 10% | inhibition [15]: Tde | pIC50 [16]: 7.40 | inhibition [17]: Active | inhibition [18]: Active | microsomal CLint at 1 µM [19]: 20 µL/min/mg | inhibition at 10 min, 10 µM [20]: 47% | inhibition [21]: Dose-Dependent Effect | inhibition [22]: Active | inhibition [23]: Active | pIC50 [24]: 4.66 | pIC50 [25]: 7.52 | half-life at 1 µM [26]: > 120 min | Activity [27]: Active | inhibition [28]: Active | inhibition [29]: Active

COc1cc(Nc2ncnc3c2ncn3Cc2ccc(C(=O)NO)cc2)cc(OC)c1OC
pIC50 [5]: < 4.30 | pIC50 [16]: 6.10 | pIC50 [24]: < 4.30

O=C(NO)c1ccc(Cn2cnc3c(O)ncnc32)cc1
pIC50 [5]: < 4.30 | pIC50 [16]: < 4.30 | pIC50 [24]: < 4.30 | pIC50 [25]: < 4.30

O=C(NO)c1ccc(Cn2cnc3c(Nc4ccccc4)ncnc32)cc1
pIC50 [5]: < 4.30 | pIC50 [16]: 6.89 | pIC50 [24]: < 4.30 | pIC50 [25]: 6.70

O=C(NO)c1ccc(Cn2cnc3c(Nc4ccc(Cl)c(C(F)(F)F)c4)ncnc32)cc1
pIC50 [5]: 4.88 | pIC50 [16]: 6.59 | pIC50 [24]: 5.54 | pIC50 [25]: 6.60

O=C(/C=C/c1cccc(S(=O)(=O)Nc2ccccc2)c1)NO [BELINOSTAT]
pIC50 [30]: 5.59

Cc1ccc(Nc2ncnc3c2ncn3Cc2ccc(C(=O)NO)cc2)cc1S(N)(=O)=O
pIC50 [5]: < 4.30 | pIC50 [16]: < 4.30 | pIC50 [24]: < 4.30 | pIC50 [25]: < 4.30

COc1ccc(Nc2ncnc3c2ncn3Cc2ccc(C(=O)NO)cc2)cc1OC
pIC50 [5]: < 4.30 | pIC50 [16]: 6.30 | pIC50 [24]: 4.79 | pIC50 [25]: 6.22

Nc1ccc(S(=O)(=O)Nc2ccnn2-c2ccccc2)cc1 [SULFAPHENAZOLE]
inhibition at 10 min, 10 µM [3]: 10% | inhibition at 10 min, 10 µM [20]: 10%

C=C[C@H]1C[N@@]2CC[C@H]1C[C@@H]2[C@@H](O)c1ccnc2ccc(OC)cc12 [QUINIDINE]
inhibition at 10 min, 10 µM [1]: 10% | inhibition at 10 min, 10 µM [3]: 86% | inhibition at 10 min, 10 µM [20]: 10%

O=C(NO)c1cccc(Cn2cnc3c(O)ncnc32)c1
pIC50 [5]: < 4.30 | pIC50 [16]: < 4.30 | pIC50 [24]: < 4.30 | pIC50 [25]: < 4.30

COC(=O)c1ccc(Cn2cnc3c(Nc4ccc(Cl)c(C(F)(F)F)c4)ncnc32)cc1
pIC50 [5]: < 4.30 | pIC50 [16]: < 4.30 | pIC50 [24]: < 4.30 | pIC50 [25]: < 4.30

O=C(NO)c1ccc(Nc2ncnc3[nH]cnc23)cc1
pIC50 [5]: < 4.30 | pIC50 [16]: < 4.30 | pIC50 [24]: < 4.30 | pIC50 [25]: < 4.30

CC(=O)N1CCN(c2ccc(OCC3COC(Cn4ccnc4)(c4ccc(Cl)cc4Cl)O3)cc2)CC1 (stereo not drawn) [KETOCONAZOLE]
inhibition at 10 min, 10 µM [1]: 10% | inhibition at 10 min, 10 µM [20]: 10%

CCN(CC)CCNC(=O)c1c(C)[nH]c(/C=C2\C(=O)Nc3ccc(F)cc32)c1C [SUNITINIB]
half-life at 1 µM [8]: 12 min | microsomal CLint at 1 µM [14]: 21 µL/min/mg | microsomal CLint at 1 µM [19]: 58 µL/min/mg | half-life at 1 µM [26]: 33 min
